Test results: patent US12077503B2, “Substituted cyclic amides and their use as herbicides” (FMC CORPORATION, priority 2015, dated 2024)

Tests used:
Type in all cases: in vivo
[1] = test system: crabgrass, large (Digitaria sanguinalis); experiment: Test A preemergence; conditions: for Plant response rating, Crabgrass, Large: 125 g ai/ha, preemergence, 0 to 100 scale (0 no effect, 100 complete control); for Crabgrass, Large plant response rating (0 to 100 scale): Preemergence, 500 g ai/ha, 0 is no effect, 100 is complete control
How it was run: (§1)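 Preemergence soil spray on seeded pots or post-emergence spray on 1–2 leaf plants, in loam–sand blend. Greenhouse ~10 d. Visual rating 0–100 against untreated plants.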

[2] = test system: wheat (Triticum aestivum); experiment: Test A preemergence; conditions: for Plant response rating, Wheat: 125 g ai/ha, preemergence, 0 to 100 scale (0 no effect, 100 complete control); for Wheat plant response rating (0 to 100 scale): Preemergence, 500 g ai/ha, 0 is no effect, 100 is complete control
How it was run: as §1

corn (Zea mays) [3] = experiment: Test A preemergence; conditions: for Plant response rating, Corn: 125 g ai/ha, preemergence, 0 to 100 scale (0 no effect, 100 complete control); for Corn plant response rating (0 to 100 scale): Preemergence, 500 g ai/ha, 0 is no effect, 100 is complete control
How it was run: as §1

[4] = test system: velvetleaf (Abutilon theophrasti); experiment: Test A preemergence; conditions: for Plant response rating, Velvetleaf: 125 g ai/ha, preemergence, 0 to 100 scale (0 no effect, 100 complete control); for Velvetleaf plant response rating (0 to 100 scale): Preemergence, 500 g ai/ha, 0 is no effect, 100 is complete control
How it was run: as §1

[5] = test system: morningglory (Ipomoea spp.); experiment: Test A preemergence; conditions: for Plant response rating, Morningglory: 125 g ai/ha, preemergence, 0 to 100 scale (0 no effect, 100 complete control); for Morningglory plant response rating (0 to 100 scale): Preemergence, 500 g ai/ha, 0 is no effect, 100 is complete control
How it was run: as §1

[6] = test system: barnyardgrass (Echinochloa crus-galli); experiment: Test A preemergence; conditions: for Plant response rating, Barnyardgrass: 125 g ai/ha, preemergence, 0 to 100 scale (0 no effect, 100 complete control); for Barnyardgrass plant response rating (0 to 100 scale): Preemergence, 500 g ai/ha, 0 is no effect, 100 is complete control
How it was run: as §1

[7] = test system: pigweed (Amaranthus retroflexus); experiment: Test A preemergence; conditions: for Plant response rating, Pigweed: 125 g ai/ha, preemergence, 0 to 100 scale (0 no effect, 100 complete control); for Pigweed plant response rating (0 to 100 scale): Preemergence, 500 g ai/ha, 0 is no effect, 100 is complete control
[8] = test system: giant foxtail (Setaria faberii); experiment: Test A preemergence; conditions: for Plant response rating, Foxtail, Giant: 125 g ai/ha, preemergence, 0 to 100 scale (0 no effect, 100 complete control); for Foxtail, Giant plant response rating (0 to 100 scale): Preemergence, 500 g ai/ha, 0 is no effect, 100 is complete control
How it was run: as §1

[9] = test system: ducksalad (Heteranthera limosa); experiment: Test B flooded paddy test; conditions: Flood, 250 g ai/ha; 0 to 100 scale where 0 is no effect and 100 is complete control; 13 to 15 d
How it was run: (§2)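 Rating scale 0–100 (visual, vs untreated controls) after a 13–15 d greenhouse period; application to the flood layer, 3 cm above soil and maintained; plants at 2-leaf stage when treated.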

[10] = test system: sedge, umbrella (small-flower umbrella sedge, Cyperus difformis); experiment: Test B flooded paddy test; conditions: Flood, 250 g ai/ha; 0 to 100 scale where 0 is no effect and 100 is complete control; 13 to 15 d
How it was run: as §2

rice (Oryra sativa) = experiment: Test B flooded paddy test; conditions: Flood, 250 g ai/ha; 0 to 100 scale where 0 is no effect and 100 is complete control; 13 to 15 d
How it was run: as §2

[11] = test system: barnyardgrass (Echinochloa crus-galli); experiment: Test B flooded paddy test; conditions: Flood, 250 g ai/ha; 0 to 100 scale where 0 is no effect and 100 is complete control; 13 to 15 d
How it was run: as §2

[12] = test system: crabgrass, large (Digitaria sanguinalis); experiment: Test A postemergence
How it was run: as §1

[13] = test system: wheat (Triticum aestivum); experiment: Test A postemergence
How it was run: as §1

corn (Zea mays) [14] = experiment: Test A postemergence
How it was run: as §1

[15] = test system: velvetleaf (Abutilon theophrasti); experiment: Test A postemergence
How it was run: as §1

[16] = test system: morningglory (Ipomoea spp.); experiment: Test A postemergence
How it was run: as §1

[17] = test system: barnyardgrass (Echinochloa crus-galli); experiment: Test A postemergence
How it was run: as §1

[18] = test system: pigweed (Amaranthus retroflexus); experiment: Test A postemergence
How it was run: as §1

[19] = test system: giant foxtail (Setaria faberii); experiment: Test A postemergence
How it was run: as §1

[20] = 500 g ai/ha, postemergence, 0 to 100 scale, 0 no effect, 100 complete control
[21] = Postemergence, 125 g ai/ha, visual injury, 0 to 100 scale (0 no effect, 100 complete control), approx. 10 d

Nc1cccc(C2CNC(=O)C2C(=O)Nc2cccc(F)c2F)c1 (stereo not drawn) [Compound 353]
0: Plant response rating, Crabgrass, Large [1] | Crabgrass, Large plant response rating (0 to 100 scale) [1] | Plant response rating, Wheat [2] | Wheat plant response rating (0 to 100 scale) [2] | Plant response rating, Corn (corn (Zea mays) [3]) | Corn plant response rating (0 to 100 scale) (corn (Zea mays) [3]) | Plant response rating, Velvetleaf [4] | Velvetleaf plant response rating (0 to 100 scale) [4] | Plant response rating, Morningglory [5] | Morningglory plant response rating (0 to 100 scale) [5] | Plant response rating, Barnyardgrass [6] | Barnyardgrass plant response rating (0 to 100 scale) [6] | Plant response rating, Pigweed [7] | Pigweed plant response rating (0 to 100 scale) [7] | Plant response rating, Foxtail, Giant [8] | Foxtail, Giant plant response rating (0 to 100 scale) [8] | Plant response rating, Ducksalad [9] | Plant response rating, Sedge, Umbrella [10] | Plant response rating, Rice (rice (Oryra sativa)) | Plant response rating, Barnyardgrass [11] | Plant response rating, Crabgrass, Large [12, 20] | Plant response rating, Crabgrass, Large [12, 21] | Plant response rating, Wheat [13, 20] | Plant response rating, Wheat [13, 21] | Plant response rating, Corn (corn (Zea mays) [14]; [20]) | Plant response rating, Corn (corn (Zea mays) [14]; [21]) | Plant response rating, Velvetleaf [15, 20] | Plant response rating, Velvetleaf [15, 21] | Plant response rating, Morningglory [16, 20] | Plant response rating, Morningglory [16, 21] | Plant response rating, Barnyardgrass [17, 20] | Plant response rating, Barnyardgrass [17, 21] | Plant response rating, Pigweed [18, 20] | Plant response rating, Pigweed [18, 21] | Plant response rating, Foxtail, Giant [19, 20] | Plant response rating, Foxtail, Giant [19, 21]

O=C1NCC(c2cccnc2)C1C(=O)Nc1ccccc1C(F)(F)F (racemic) [Compound 352]
0: Plant response rating, Crabgrass, Large [1] | Crabgrass, Large plant response rating (0 to 100 scale) [1] | Plant response rating, Wheat [2] | Wheat plant response rating (0 to 100 scale) [2] | Plant response rating, Corn (corn (Zea mays) [3]) | Corn plant response rating (0 to 100 scale) (corn (Zea mays) [3]) | Plant response rating, Velvetleaf [4] | Velvetleaf plant response rating (0 to 100 scale) [4] | Plant response rating, Morningglory [5] | Morningglory plant response rating (0 to 100 scale) [5] | Plant response rating, Barnyardgrass [6] | Barnyardgrass plant response rating (0 to 100 scale) [6] | Plant response rating, Pigweed [7] | Pigweed plant response rating (0 to 100 scale) [7] | Plant response rating, Foxtail, Giant [8] | Foxtail, Giant plant response rating (0 to 100 scale) [8] | Plant response rating, Ducksalad [9] | Plant response rating, Sedge, Umbrella [10] | Plant response rating, Rice (rice (Oryra sativa)) | Plant response rating, Barnyardgrass [11] | Plant response rating, Crabgrass, Large [12, 20] | Plant response rating, Crabgrass, Large [12, 21] | Plant response rating, Wheat [13, 20] | Plant response rating, Wheat [13, 21] | Plant response rating, Corn (corn (Zea mays) [14]; [20]) | Plant response rating, Corn (corn (Zea mays) [14]; [21]) | Plant response rating, Velvetleaf [15, 20] | Plant response rating, Velvetleaf [15, 21] | Plant response rating, Morningglory [16, 20] | Plant response rating, Morningglory [16, 21] | Plant response rating, Barnyardgrass [17, 20] | Plant response rating, Barnyardgrass [17, 21] | Plant response rating, Pigweed [18, 20] | Plant response rating, Pigweed [18, 21] | Plant response rating, Foxtail, Giant [19, 20] | Plant response rating, Foxtail, Giant [19, 21]
